The values that follow come from patent US12258540B2, “Environmentally compatible detergents for inactivation of lipid-enveloped viruses” (TAKEDA PHARMACEUTICAL COMPANY LIMITED, priority 2017, dated 2025).

In one series the test system is aquatic organisms. The settings on record: Triton X-100 and its break-down products; recent ecological studies; cited from earlier work.
The test system of a further series is pseudorabies virus (PRV). The class given is cell-based. Particulars: S/D treatment 0.04%-0.06% detergent, IVIG-containing liquid, 17° C.±1° C., FIG. 9A.

On to “4-(1,1,3,3-tetramethylbutyl)phenol, ethoxylated [Triton X-100]”, for which, in the series with aquatic organisms, the “endocrine disrupter behaviour in aquatic organisms” value is on record as “can potentially behave as endocrine disrupters in aquatic organisms”.
On to “4-tert-octylbenzyl alcohol polyethoxylate”, for which the “inactivation kinetics compared to Triton X-100, PRV” value in the series on pseudorabies virus (PRV) is recorded as “identical inactivation kinetics”.
